Results published in PubChem BioAssay (NCI).
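Five concentrations, 48 hours, 96-well plates. Definition used: TGI = concentration required for complete inhibition of growth.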

Columns and labels:
Test in all cases: NCI-60 cell line screen, 48 h
[1] = tested on: HS 578T breast
[2] = tested on: MDA-MB-435
[3] = tested on: RXF 393 renal
[4] = tested on: LOX IMVI melanoma
[5] = tested on: NCI-H23 lung
[6] = tested on: KM12 colon
[7] = tested on: UACC-257 melanoma
[8] = tested on: PC-3 prostate
[9] = tested on: COLO 205 colon
[10] = tested on: SF-539 CNS
[11] = tested on: ACHN renal
[12] = tested on: SNB-19 CNS
[13] = tested on: OVCAR-5 ovarian
[14] = tested on: HCC-2998 colon
[15] = tested on: HCT-116 colon
[16] = tested on: A549 NSCLC
[17] = tested on: K-562 leukemia
[18] = tested on: SK-MEL-28 melanoma
[19] = tested on: CAKI-1 renal
[20] = tested on: MDA-N

Compound | TGI [1] [µM] | TGI [2] [µM] | TGI [3] [µM] | TGI [4] [µM] | TGI [5] [µM] | TGI [6] [µM] | TGI [7] [µM] | TGI [8] [µM] | TGI [9] [µM] | TGI [10] [µM] | TGI [11] [µM] | TGI [12] [µM] | TGI [13] [µM] | TGI [14] [µM] | TGI [15] [µM] | TGI [16] [µM] | TGI [17] [µM] | TGI [18] [µM] | TGI [19] [µM] | TGI [20] [µM]
O=C1NCN(c2ccccc2)C12CCN(CCCSc1ccc(F)cc1)CC2 | > 100 | 32.6 | > 100 | 37.1 | 97.3 | 65.4 | 8.21 | > 100 | 3.24 | 58.5 | > 80.5 | > 100 | > 100 | 67.2 | 28.5 | > 100 | > 79.2 | > 100 | > 91.9 | 
Cc1cc2nc3c(C#N)c(-c4ccccc4)cc(Nc4cccc(C(F)(F)F)c4)n3c2cc1C |  | 30.6 | 22.9 | > 100 | > 100 | > 100 | 54.3 | 16 | > 100 | 13.6 | 28.5 | 80.7 | 47.1 | 14.3 | 10.8 | 16.8 | 1.2 | 50.6 | 40.2 | 24.7
CC1CC(=O)NC2CC1C2(C)C (centres undefined) | > 100 | > 100 | > 100 | > 100 | > 100 | > 100 | > 100 |  | > 100 |  | > 100 | > 100 | > 100 | > 100 |  | > 100 | > 100 | > 100 |  | > 100
O=C1C=Cc2c(I)sc(I)c21 |  | 62.1 | 40.3 | 25.2 | 36.7 | 50 | 53.5 |  | 36.8 | 57.2 | > 100 |  | 94.6 | 35.3 | 33.1 | > 100 | 56.8 | 44.6 | 33.3 | 87.2
CCCN1CN(C(C(=O)N[C@@H]2C(=O)N3C(C(=O)O)=C(C)CSC23)c2ccccc2)CSC1=S (some centres undefined) |  |  | 82.5 | > 100 | > 100 | > 100 | > 100 |  | > 100 | > 100 | > 100 | > 100 | > 100 |  | > 100 | > 100 | > 100 | > 100 |  | 
Cc1c(C)c2ccc(O)cc2[nH]c1=O |  | > 100 | > 100 | > 100 | > 100 | > 100 | > 100 | > 100 | > 100 | > 100 | > 100 | > 100 | > 100 | > 100 | > 100 | > 100 | > 100 | > 100 | > 100 | > 100
CC1(C)OC([C@H](O)CO)C([C@H]2NCCS2)O1 (some centres undefined) | > 100 | > 100 | > 100 | > 100 | > 100 | > 100 | > 100 | > 100 | > 100 |  | > 100 | > 100 | > 100 | > 100 | > 100 | > 100 | > 100 | > 100 | > 100 | 
COc1ccc(C2C3=C(CCCC3=O)N(c3ccccc3)C3=C2C(=O)CCC3)cc1 | > 100 |  | 78.7 | > 100 | > 100 | > 100 |  | > 100 |  | > 100 | > 100 | > 100 | > 100 |  |  | > 100 | > 100 | > 100 | > 100 | 
CC1OC2OC3C(OCC(O)C3O)OC(=O)[C@]34CCC(C)(C)CC3C3=CCC5[C@@]6(C)C[C@H](O)[C@H](OC7OC(CO)C(O)C(O)C7OC7OC(COC(=O)CC(C)(O)CC(=O)OC1C(O)C2O)C(O)C(O)C7O)[C@@](C)(CO)C6CC[C@@]5(C)[C@]3(C)CC4 (some centres undefined) | 3.54 | 2.88 |  | 2.91 | 3.08 | 2.89 | 2.64 | 2.56 | 2.98 | 11.9 | 2.52 | 3.18 | 2.85 | 2.63 | 3.39 | 2.63 |  | 2.79 | 2.74 | 2.73
COc1ccc(C2S/C(=C\c3cccc([N+](=O)[O-])c3)C(=O)N2NC(=O)Cc2ccccc2)cc1 (centres undefined) |  |  | > 100 | > 100 | > 100 | > 100 | > 100 |  | > 100 | > 100 | > 100 |  | > 100 |  | > 100 | > 100 | > 100 | > 100 | > 100 | 
Cn1c(C2CC(C)(C)c3c2c2ccccc2n3C)cc2ccccc21 (centres undefined) |  |  | > 304 | > 304 | > 304 | > 304 | > 304 |  | > 304 | > 304 | > 304 | > 304 | > 304 | > 304 | > 304 | > 304 | > 304 | > 304 | > 304 | 
